Measurements published in paper PMC7018972, “Novel and selective inactivators of Triosephosphate isomerase with anti-trematode activity” (Scientific Reports, 2020).
Read-outs that look alike come from different tables or passages of the source.

Tests used:
[1] = target: Fasciola hepatica TIM (FhTIM) (Fasciola hepatica, UniProt S4UI50); experiment: Inhibition of recombinant FhTIM, coupled enzyme assay; assay type: biochemical
In short: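 E. coli-expressed FhTIM preincubated with compound 1 h at 37 °C in 100 mM triethanolamine, 10 mM EDTA, pH 7.4, 10% DMSO. Aliquot diluted into coupled assay (1 mM glyceraldehyde-3-phosphate, 0.2 mM NADH, α-glycerol phosphate dehydrogenase, pH 7.4) with NADH decrease at 340 nm, 38 °C. Triplicate, two independent experiments.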

FhTIM = FhTIM (Fasciola hepatica, UniProt S4UI50); experiment: Microscale thermophoresis (MST) binding to FhTIM; details: 24 °C
Chain of FhTIM (S4UI50 entry or part of it): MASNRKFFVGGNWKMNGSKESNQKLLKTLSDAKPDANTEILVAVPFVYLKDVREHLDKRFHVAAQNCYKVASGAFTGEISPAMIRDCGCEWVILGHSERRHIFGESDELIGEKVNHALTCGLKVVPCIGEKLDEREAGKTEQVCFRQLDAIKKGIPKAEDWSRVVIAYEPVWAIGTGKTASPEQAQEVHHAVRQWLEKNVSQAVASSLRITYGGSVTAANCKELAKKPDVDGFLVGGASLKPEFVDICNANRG
Procedure: MST experiments were performed according to the NanoTemper technologies protocol in a Monolith NT.115 (red/blue) instrument (NanoTemper Technologies, München, Germany[36]). With this technique, the diffusion behavior of a labeled protein is measured when an infrared light excites the movement of the protein in capillaries. This behavior is the combination of two effects: the fast, local environment-dependent responses of the fluorophore to the temperature jump and the slower diffusive thermophoresis fluorescence changes. It will be modified when the protein is complexed with increasing amounts of unlabeled partners, leading to titration curves that can be fit for Kd estimation. In practice, FhTIM was labeled with the Monolith His-Tag Labeling Kit RED-tris-NTA (NanoTemper Technologies, München, Germany), as described by the manufacturer. The experiments were performed using 20% and 40% MST power and between 20–80% LED power at 24 °C. The MST traces were recorded using the standard parameters: 5 s MST power off, 30 s MST power on, and 5 s MST power off. The compounds were used at high concentrations (around 5 mM) in the bindings check assay with DMSO at 5% v/v. If the binding check was positive, then the affinity determination was performed with the same experimental settings, with serial 2x dilutions of the compound of interest.

human (HsTIM) = target: T1, human (HsTIM) (Homo sapiens, UniProt P60174); experiment: Selectivity assay, inhibition of HsTIM; assay type: biochemical; details: read-out: inhibition against HsTIM
T1 construct: made in house; host or cells: Escherichia coli
T1 sequence (P60174 whole entry): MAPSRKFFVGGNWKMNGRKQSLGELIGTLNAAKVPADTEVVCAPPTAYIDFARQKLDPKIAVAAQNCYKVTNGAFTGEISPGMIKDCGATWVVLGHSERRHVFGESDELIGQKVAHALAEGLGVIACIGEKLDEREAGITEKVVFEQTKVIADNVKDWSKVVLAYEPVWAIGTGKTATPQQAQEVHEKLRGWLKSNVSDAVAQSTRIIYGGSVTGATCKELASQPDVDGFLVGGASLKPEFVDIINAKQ
Procedure: (§1) Expression and purification of proteins: FhTIM, RabbitTIM and HsTIM were expressed in Escherichia coli and purified as described in the literature[31],[37]. After purification, the enzyme, dissolved in 100 mM triethanolamine, 10 mM EDTA and 1 mM dithiothreitol (pH 8), was precipitated with ammonium sulfate (75% saturation) and stored at 4 °C. Before use, extensive dialysis against 100 mM triethanolamine/10 mM EDTA (pH 7.4) was performed. Protein concentration was determined by absorbance at 280 nm for FhTIM (ε = 33,460 M^−1cm^−1) and for RabbitTIM and HsTIM (ε = 33,460 M^−1cm^−1). Enzymatic activity was determined following the conversion of glyceraldehydes-3-phosphate into dihydroxyacetone phosphate in a coupled enzyme assay. The decrease in absorbance at 340 nm was followed in a multiplate reader VarioskanTM Flash Multimode Reader (Thermo ScientificTM, Waltham, MA, USA) at 38 °C. The reaction mixture (1 mL, pH 7.4) contained 100 mM triethanolamine, 10 mM EDTA, 0.2 mM NADH, 1 mM glyceraldehydes-3-phosphate and 0.9 units of α-glycerol phosphate dehydrogenase. The reaction was initiated by the addition of 5 ng/mL of the TIM of interest. For the inhibition studies, TIM was incubated at a concentration of 5 mg/mL in a buffer containing 100 mM triethanolamine, 10 mM EDTA, pH 7.4 and 10% of DMSO at 37 °C for 1 h. The mixture also contained the compounds, dissolved in DMSO, at the indicated concentrations. After 1 h, 10 µL were withdrawn and added to a final volume of 100 µL of the reaction mixture for the activity assay. The inhibition assay was performed in a 96-well microplate. None of the molecules tested here affected the activity of α-glycerol phosphate dehydrogenase, the enzyme used in the coupled assay. The IC50 value was taken as the concentration of drug needed to reduce the enzymatic activity to 50% by analysis using OriginLab8.5® sigmoidal regression (% of enzymatic activity vs. the logarithm of the compound concentration). The experiments were performed in triplicate in two independent experiments.

rabbit TIM = target: T2, rabbit TIM (Oryctolagus cuniculus, UniProt P00939); experiment: Selectivity assay, inhibition of rabbit TIM; assay type: biochemical; details: read-out: inhibition against rabbit TIM
T2 construct: made in house; host or cells: Escherichia coli
T2 sequence (P00939 whole entry): as the sequence (P60174 whole entry) above, with Q20K, S21N, G27T, A119S counted along it
Procedure: as §1

[2] = test system: newly excysted juvenile (NEJ) F. hepatica; experiment: In vitro NEJ treatment; assay type: cell-based, Fasciola hepatica; details: NEJ
Procedure: F. hepatica metacercariae were acquired from DILAVE, MGAP, Uruguay. NEJ were obtained by in vitro excystement as previously described with minor modifications. Briefly, metacercariae were incubated with 1% sodium hypochlorite for 5 min at room temperature to remove the outer cyst wall and then washed exhaustively with PBS 200 U/mL Penicillin G sulfate, […] streptomycin sulfate, 500 ng/mL amphotericin B, 10 mM HEPES, counted and divided into groups of around 20 parasites that were transferred to 12 wells tissue culture plates. Parasites were maintained at 37 °C, 5% CO2 in modified Basch’s medium. At day 1, compounds were added at the indicated concentrations and 0.5% DMSO was added to control groups; each condition was tested in duplicate. NEJ behavior was monitored under a light microscope (Olympus BX41), every day each well was recorded for a minute in order to assess parasite motility and registered using the following score: 3- normally active; 2- reduced activity (sporadic movement); 1- immotile (dead)[48].

S. mansoni somules = S. mansoni somules phenotypic screen in vitro; assay type: cell-based, Schistosoma mansoni; details: for S. mansoni somules severity score: score 0 to maximum 4; for SOMULES SEVERITY SCORE: Table 2S, 10 uM
Description: (§2) The NMRI isolate of S. mansoni was maintained by passage through Biomphalaria glabrata snails and 3–5 week-old, female Golden Syrian hamsters (Charles River, San Diego, CA) as intermediate and definite hosts, respectively. A dose of 600 infective larvae (cercariae) was used to infect hamsters. The acquisition, preparation and in vitro maintenance of S. mansoni post-infective larvae (schistosomula or somules) and adults have been already described[5],[50],[51]. Vertebrate animal maintenance and handling at the University of California San Diego Animal Care Facility were in accordance with protocols approved by the university’s Institutional Animal Care and Use Committee (IACUC).
Phenotypic screens with somules were performed as described[5],[50],[51]. Initially, 100 μL Basch medium, 100 U/ml penicillin, […] streptomycin, 4% heat-inactivated FBS (Corning Mediatech) and 1 μl compound in DMSO were added to clear, 96-well round-bottomed plates (Costar cat.# 3367). Then, 100 μL of the same medium containing 40–50 somules was added to mix the compound with somules (final concentration of DMSO was 0.5%). Assay plates were placed into plastic boxes humidified with wet tissue and then incubated at 37 °C in a 5% CO2 environment. Somules phenotypes were recorded every 24 h up to 72 h using an inverted microscope (Zeiss Axiovert 40 C).
(§3) Schistosome phenotypic responses were recorded employing a series of ‘descriptors,’ such as rounding, degeneration, overactivity, loss of translucency and changes in motility, as described previously[5],[50],[51],[53]. To allow for comparisons of compound activity, each descriptor was awarded a value of 1 and these were added up to a maximum ‘severity score’ of 4. Evidence of degeneracy or death was awarded the maximum score of 4. Scores were averaged across duplicate wells for each compound (see details in the supporting information).

S. mansoni adults = S. mansoni adults phenotypic screen ex vivo; assay type: cell-based, Schistosoma mansoni; details: Table 2S, 5 uM
Description: as §2
Phenotypic screens with 42-day-old, adult parasites were performed in 24-well plates (Costar cat.# 3526) containing the above medium and approximately five adult males and two females per well. Compound was added in a volume of up to 1 μL DMSO at a concentration of 5 µM (0.05% DMSO final). Assay plates were incubated at 37 °C in a 5% CO2 environment. Parasite phenotypes were recorded at 4, 8 and 24 h using a Zeiss Axiovert 40 C.
as §3

[3] = test system: murine macrophages and bovine sperm; experiment: Non-specific toxicity against mammalian cells; assay type: cell-based; details: for toxicity to mammalian cells in words: herein; for Toxicity mammalian cells: selectivity index parasite vs. mammalian cells, fixed doses 25 and 100 µM
Procedure: As a proof of concept, we tested the best FhTIM inactivators against F. hepatica and S. mansoni parasites. Also, we use compound 191 as a non-inhibitor which has a closely related structure to that of compound 187. Some compounds were able to kill 100% of the newly excysted juvenile (NEJ) F. hepatica within 4 to 48 h (Table 2 and Fig. 2). […] In parallel, these compounds were assayed to characterize their non-specific toxicity against murine macrophages and bovine sperm. Both models are recommended by FDA as an in vitro prediction of toxicology.
J774.1 murine macrophage cells (ATCC, USA) were grown in DMEM culture milieu containing 4 mM glutamine and supplemented with 10% FCS[20]. The cells were seeded in a 96-well plate (5×10^4 cells in 200 µL culture medium) and incubated at 37 °C in a 5% CO2 atmosphere for 48 h, to allow cell adhesion prior to drug testing. Afterward, cells were exposed for 48 h to the compounds (25–400 µM) or the vehicle for control (0.4% DMSO), and additional controls (cells in medium) were used in each test. Cell viability was then assessed by measuring the mitochondria-dependent reduction of MTT (3-(4,5-dimethylthiazol-2-yl)-2,5-diphenyltetrazolium bromide) to formazan. For this purpose, MTT in sterile PBS (0.2% glucose), pH 7.4, was added to the macrophages to achieve a final concentration of 0.1 mg/mL, and the cells were incubated at 37 °C for 3 h. After removing the medium, formazan crystals were dissolved in 180 µL of DMSO and 20 µL of MTT buffer (0.1 M glycine, 0.1 M NaCl, 0.5 mM EDTA, pH 10.5), and the absorbance at 560 nm was measured. The IC50 was defined as the drug concentration at which 50% of the cells were viable, relative to the control (no drug added), and was determined by analysis using OriginLab8.5® sigmoidal regression (% of viable cells vs. the logarithm of the compound concentration). Tests were performed in triplicate.
Semen samples were obtained from a healthy fertile Hereford bull and kept frozen in 0.5 mL straws (extended in Andromed, Minitube, Germany[47]) under liquid nitrogen until use. The semen used belonged to a single freezing batch that was obtained during a regular collection schedule with an artificial vagina. Samples from three straws were thawed and a sperm pool was prepared in PBS at a concentration of 40 million spermatozoa per mL, then 50 μL of this sperm suspension was carefully mixed with 50 μL of compounds diluted to 100, 50, 25, 12.5 and 6.25 μM or with 1% DMSO in control experiments. Each condition was assayed by duplicate in 96-well plates and controls were assayed by triplicate. Plates were incubated at 37 °C for 1 h with moderate shaking. The motility analysis was carried out using a CASA (Computer Assisted Semen Analyzer) system Androvision (Minitube, Tiefenbach, Germany) with an Olympus BX 41 microscope (Olympus, Japan) equipped with a warm-stage at 37 °C. Each sample (10 μL) was placed onto a Makler Counting Chamber (depth 10 μm, Sefi-Medical Instruments, Israel) and the following parameters were evaluated: percentage of total motile spermatozoa (motility >5 μm/s) and velocity curved line (VCL, >24 μm/s). At least 400 spermatozoa were analyzed from each sample from at least four microscope fields.

[4] = test system: murine macrophages and human peripheral blood mononuclear cells; parameters: method as in PMID 22536349; details: at 100 µM; cited from earlier work
[5] = Figure 1, ranges of inhibitory activity, read-out: IC50 range
[6] = Table 1S, screening of 340 compounds in FhTIM, table head prints no unit, µM per b8/b9, read-out: IC50
[7] = recombinant FhTIM, 1 h incubation with compound at 37 °C, read-out: IC50

Chain of Fasciola hepatica TIM (FhTIM) (S4UI50 entry or part of it): as the sequence (S4UI50 entry or part of it) above

| IC50 [1, 5] | IC50 [1, 6] | IC50 [1, 7] | Kd (FhTIM) | inhibition at 100 µM (human (HsTIM)) | inhibition at 100 µM (rabbit TIM) | IC50 ([2]; incubation time 72 h) | SMILES | S. mansoni somules severity score (S. mansoni somules; Table 2, 72 h) | SOMULES SEVERITY SCORE (S. mansoni somules; 24 h) | SOMULES SEVERITY SCORE (S. mansoni somules; 48 h) | SOMULES SEVERITY SCORE (S. mansoni somules; 3d) | toxicity to mammalian cells in words [3] | Toxicity mammalian cells [3] | toxicity in words [4] | other results |
| --- | --- | --- | --- | --- | --- | --- | --- | --- | --- | --- | --- | --- | --- | --- | --- |
| < 50 µM | < 25 µM | 5 ± 1 µM | 120 ± 10 µM | < 20% | < 20% | – | CCCCCCN1C(=O)C(=Cc2ccc([N+](=O)[O-])cc2)C(=O)N(CCCCCC)S1(=O)=O [Compound 128] | – | – | – | – | – | – | – | IC50 ([2]; Fasciola hepatica, incubation time 12 h): 10 ± 1 µM |
| < 50 µM | – | 8 ± 2 µM | 120 ± 12 µM | < 20% | < 20% | – | O=C1C(=Cc2ccc([N+](=O)[O-])s2)C(=O)N(CCc2ccccc2)S(=O)(=O)N1CCc1ccccc1 [Compound 115] | 4 (72 h) | 2 | 3 | 4 | – | – | – | IC50 ([2]; Fasciola hepatica, incubation time 72 h): 7 ± 2 µM |
| – | – | 60 ± 2 µM | – | – | – | 25 ± 5 µM | C=CCn1c(-c2ccc(Cl)cc2)csc1=NN=CC=Cc1ccc([N+](=O)[O-])s1 [Compound 144] | 4 (72 h) | 1 | 2 | 4 | non-toxic | NT (when the IC50 vs. the parasite was at least 10 times less than the IC50 vs. the mammalian cells, we considered these compounds as non-toxic (NT)) | non-toxic | ADULTS SEVERITY SCORE (S. mansoni adults; 4 h): 0; ADULTS SEVERITY SCORE (S. mansoni adults; 8 h): 0; ADULTS SEVERITY SCORE (S. mansoni adults; 24 h): 0 |
| – | 50 to 100 µM | 45 ± 4 µM | – | – | – | 50 ± 6 µM | C=CCn1c(-c2ccc(Cl)cc2)csc1=NN=CC=Cc1cccs1 [Compound 1134] | – | – | – | – | non-toxic | NT (when the IC50 vs. the parasite was at least 10 times less than the IC50 vs. the mammalian cells, we considered these compounds as non-toxic (NT)) | non-toxic | – |
| < 50 µM | – | 7 ± 1 µM | – | < 20% | < 20% | – | O=C1C(=Cc2ccc([N+](=O)[O-])cc2)C(=O)N(CCc2ccccc2)S(=O)(=O)N1CCc1ccccc1 [Compound 110] | – | 0 | 0 | 0 | – | – | – | IC50 ([2]; Fasciola hepatica, incubation time 30 h): 5 ± 2 µM; S. mansoni somules severity score (S. mansoni somules; Table 2, time not given): 0 |
